Results taken from paper PMC5536191 (ACS chemical biology, 2017).
Entries after “also recorded” stand apart in the source; their conditions may differ.

Key:
PRC2 complex = test: PRC2 methyltransferase activity on histone H3 after PAD preincubation; type: biochemical, human; details: PAD preincubation with H3; Figure S1A and B
Will-2 cells = test: H3K27Me3 levels in DLBCL cells; type: cell-based
PAD [1] = test: PAD inhibition by F-Amidine; type: biochemical; details: F-Amidine 1 mM, 15 min
PAD [2] = details: ref [46]; cited from earlier work
PRC2 = details: F-Amidine 1 mM
T47D cells [3] = type: cell-based
MCF7 cells = test: H3Cit26 and H3K27Me3 levels after estradiol stimulation; type: cell-based
T47D cells [4] = test: as above; type: cell-based
ERα = test: Co-immunoprecipitation of PAD2 and ERα in MCF7 nuclear extracts; type: binding; details: MCF7 nuclear extracts post E2 stimulation
UTX and JMJD3 = test: Co-immunoprecipitation with PAD2 in MCF7 nuclear extracts; type: binding; details: MCF7 nuclear extracts post E2 stimulation

Compound: PAD4: Protein Arginine Deiminase type-4
- effect on PRC2 catalyzed methylation, time and dose dependence (PRC2 complex): decrease PRC2 catalyzed methylation in a time- and dose-dependent manner

Compound: N=C(CF)NCCC[C@H](NC(=O)c1ccc(-c2ccccc2)cc1)c1nc2ccccc2[nH]1 [BB-F-Amidine, N1-[1,4′-Phenyl]benzoyl-N5-(2-fluoro-1-inimoethyl)-1-(1H-benzo[d]imidazole-2-yl)-L-ornithine amide]
- H3K27Me3 increase by PAD inhibitor in EZH2 knockdown cells (Will-2 cells; EZH2 knockdown cells treated with PAD inhibitor): attenuated
- increase in H3K27Me3 levels (Will-2 cells; PAD inhibitor treatment, DLBCL line (Will-2)): 4 fold

Compound: N=C(CF)NCCC[C@H](NC(=O)c1ccccc1)C(N)=O [F-Amidine, N-α-benzoyl-N5-(2-fluoro-1-iminoethyl)-L-ornithine amide]
- inhibition of PAD reaction (PAD [1]): completely inhibits the PAD reaction
- PAD inhibition character (PAD [2]): highly selective, irreversible pan-PAD inhibitor
- effect on methyltransferase activity of PRC2 (PRC2): no effect on the methyltransferase activity of PRC2

Compound: CCOC(=O)CCNc1cc(N2CCc3ccccc3CC2)nc(-c2ccccn2)n1 [GSK-J4]
- effect on E2-stimulated transcription of ERα-target genes (e.g. GDNF and KRT13) (T47D cells [3]; 400 nM GSK-J4, 5 days, baseline vs 60 min E2): downregulated

Compound: CCN(c1cc(-c2ccc(CN3CCOCC3)cc2)cc(C(=O)NCc2c(C)cc(C)[nH]c2=O)c1C)C1CCOCC1 [EPZ-6438]
- effect on H3K27Me3 increase of PAD2 knockdown cells (Will-2 cells; PAD2 knockdown cells treated with EZH2 inhibitor): attenuated
- effect on baseline transcription before estradiol stimulation (T47D cells [3]; 5 μM EPZ-6438, 5 days, absence of estradiol): basal transcriptional level is increased relative to control cells; also recorded: increased baseline transcription prior to E2 stimulation

Compound: C[C@]12CC[C@@H]3c4ccc(O)cc4CC[C@H]3[C@@H]1CC[C@@H]2O [E2, 17-β-estradiol]
- H3K27Me3 level (MCF7 cells; 100 nM, 4 h): modest reduction in H3K27Me3 levels
- H3Cit26 signal (MCF7 cells; E2 stimulation, after 2 h): lost
- H3K27Me3 level (T47D cells [4]; 100 nM, 1 h): modest reduction in H3K27Me3 levels
- H3Cit26 signal (T47D cells [4]; E2 stimulation, after 2 h): greatly reduced

Compound: PAD2: Protein Arginine Deiminase type-2
- effect on PRC2 catalyzed methylation, time and dose dependence (PRC2 complex): decrease PRC2 catalyzed methylation in a time- and dose-dependent manner
- co-immunoprecipitation of PAD2 and ERα (ERα): PAD2 and ERα co-immunoprecipitate
- co-immunoprecipitation with UTX and JMJD3 (UTX and JMJD3): co-immunoprecipitates UTX and JMJD3
